For the test, the target named is T1, Tau P301L (Homo sapiens, UniProt P10636, P618L).
T1 construct: expressed in transfected cells
The experiment in a line: In vitro tau degradation assay in CHOK1 Tau P301L cells (sarkosyl insoluble tau, WES). Type of test: cell-based. Conditions: CHO-K1; remaining tau protein in sarkosyl insoluble pellet; CHOK1 Tau P301L cells treated 48 hours with test compound at 1 μM, doxycycline removed for the last 24 hours; relative to DMSO doxycycline control; read-out: Tau Protein Degradation effect at 1 μM. In a few lines:
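T-Rex CHOK1 clone D1 with doxycycline-inducible (1 μg/ml) Tau P301L treated 48 h with compound at 1 μM, doxycycline removed for the final 24 h. Sarkosyl-insoluble tau quantified by WES capillary electrophoresis with Tau1 antibody, expressed relative to DMSO doxycycline control and binned as ≤50% or >50% remaining.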

Among the data in patent publication US11912699B2, “Tau-protein targeting compounds and associated” (Arvinas Operations, Inc., priority 2019, dated 2024) are remaining activity values, retold here.

Structures are written as SMILES. Where a name gives a salt, the structure may show the parent alone.

T1 sequence (P10636 1-441 isoform P10636-8 P301L): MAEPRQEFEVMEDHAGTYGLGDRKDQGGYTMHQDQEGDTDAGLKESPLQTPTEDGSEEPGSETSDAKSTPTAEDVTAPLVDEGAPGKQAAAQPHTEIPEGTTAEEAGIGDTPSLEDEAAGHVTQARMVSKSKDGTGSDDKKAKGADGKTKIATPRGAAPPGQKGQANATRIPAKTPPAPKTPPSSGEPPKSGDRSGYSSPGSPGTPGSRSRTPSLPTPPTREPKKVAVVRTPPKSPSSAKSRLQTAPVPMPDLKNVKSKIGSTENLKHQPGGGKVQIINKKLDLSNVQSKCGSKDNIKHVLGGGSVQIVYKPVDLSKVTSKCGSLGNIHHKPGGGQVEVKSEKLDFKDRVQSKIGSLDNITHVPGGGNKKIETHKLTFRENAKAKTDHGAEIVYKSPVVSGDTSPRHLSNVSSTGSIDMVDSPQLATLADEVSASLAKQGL

On to `Nc1cccc2cnc(-n3ccc4cc(N5CCC(CCN6CCN(c7ccc8c(c7)C(=O)N(C7CCC(=O)NC7=O)C8=O)CC6)CC5)ncc43)cc12` (stereo not shown) [Compound 480, 5-[4-(2-[1-[1-(5-aminoisoquinolin-3-yl)pyrrolo[2,3-c]pyridin-5-yl]piperidin-4-yl]ethyl)piperazin-1-yl]-2-(2,6-dioxopiperidin-3-yl)isoindole-1,3-dione], for which the remaining activity at 1 µM is > 50%.
For `O=C1CCC(N2C(=O)c3ccc(OCCN4CCC(OC5CN(c6ncc(-c7ccn8c(n7)nc7ccccc78)cc6C(F)(F)F)C5)CC4)cc3C2=O)C(=O)N1` (stereo not shown) [Compound 483, 5-(2-(4-((1-(5-(benzo[4,5]imidazo[1,2-a]pyrimidin-2-yl)-3-(trifluoromethyl)pyridin-2-yl)azetidin-3-yl)oxy)piperidin-1-yl)ethoxy)-2-(2,6-dioxopiperidin-3-yl)isoindoline-1,3-dione], the remaining activity at 1 µM was > 50%.
The result for `Cn1c2ccncc2c2ccc(-c3ccc(O[C@H]4C[C@H](CN5CCC(CC6CCN(c7ccc8c(c7)C(=O)N(C7CCC(=O)NC7=O)C8=O)CC6)CC5)C4)nc3)cc21` (stereo partly shown) [Compound 485, 2-(2,6-dioxopiperidin-3-yl)-5-(4-((1-(((1r,3r)-3-((5-(5-methyl-5H-pyrido[4,3-b]indol-7-yl)pyridin-2-yl)oxy)cyclobutyl)methyl)piperidin-4-yl)methyl)piperidin-1-yl)isoindoline-1,3-dione] reads < 50%.
Turning to `O=C1CCC(N2C(=O)c3ccc(N4CCN(CCC5CCN(c6ncc(-c7ccc8c9cnccc9n(C(F)F)c8c7)cc6C(F)(F)F)CC5)CC4)cc3C2=O)C(=O)N1` (stereo not shown) [Compound 489, 5-[4-[2-[1-[5-[5-(difluoromethyl)pyrido[4,3-b]indol-7-yl]-3-(trifluoromethyl)-2-pyridyl]-4-piperidyl]ethyl]piperazin-1-yl]-2-(2,6-dioxo-3-piperidyl)isoindoline-1,3-dione trifluroacetate], the remaining activity at 1 µM is < 50%.
Consider `Cn1c2ccncc2c2ccc(-c3ccc(O[C@H]4C[C@H](OC5CCN(c6ccc7c(c6)C(=O)N(C6CCC(=O)NC6=O)C7=O)CC5)C4)nc3)cc21` (stereo partly shown) [Compound 493, 2-(2,6-dioxopiperidin-3-yl)-5-(4-((1r,3r)-3-((5-(5-methyl-5H-pyrido[4,3-b]indol-7-yl)pyridin-2-yl)oxy)cyclobutoxy)piperidin-1-yl) isoindoline-1,3-dione], for which the remaining activity at 1 µM is < 50%.
Take `O=C1CCC(N2C(=O)c3ccc(N4CCN(CC5CCN(c6ncc(-c7ccc8c9cnccc9n(C(F)F)c8c7)cc6C(F)(F)F)CC5)CC4)cc3C2=O)C(=O)N1` (stereo not shown) [Compound 494, 5-(4-((1-(5-(5-(difluoromethyl)-5H-pyrido[4,3-b]indol-7-yl)-3-(trifluoromethyl)pyridin-2-yl)piperidin-4-yl)methyl)piperazin-1-yl)-2-(2,6-dioxopiperidin-3-yl)isoindoline-1,3-dione]: the remaining activity at 1 µM is < 50%.
On to `Cn1c2ccncc2c2ccc(C3CCN(CCC4CCN(c5ccc6c(c5)C(=O)N(C5CCC(=O)NC5=O)C6=O)CC4)CC3)cc21` (stereo not shown) [Compound 498, 2-(2,6-dioxopiperidin-3-yl)-5-(4-(2-(4-(5-methyl-5H-pyrido[4,3-b]indol-7-yl)piperidin-1-yl)ethyl)piperidin-1-yl)isoindoline-1,3-dione], for which the remaining activity at 1 µM is < 50%.
As to `Cn1c2ccncc2c2ccc(C3CCN(CCC4CCN(CC5CCN(c6ccc7c(c6)C(=O)N(C6CCC(=O)NC6=O)C7=O)CC5)CC4)CC3)cc21` (stereo not shown) [Compound 502, 2-(2,6-dioxopiperidin-3-yl)-5-(4-((4-(2-(4-(5-methyl-5H-pyrido[4,3-b]indol-7-yl)piperidin-1-yl)ethyl)piperidin-1-yl)methyl)piperidin-1-yl)isoindoline-1,3-dione], the remaining activity at 1 µM was < 50%.
For `Cn1c2ccncc2c2ccc(-c3ccc(C4CCN(CCC5CCN(c6ccc7c(c6)C(=O)N(C6CCC(=O)NC6=O)C7=O)CC5)CC4)nc3)cc21` (stereo not shown) [Compound 508, 2-(2,6-dioxopiperidin-3-yl)-5-(4-(2-(4-(5-(5-methyl-5H-pyrido[4,3-b]indol-7-yl)pyridin-2-yl)piperidin-1-yl)ethyl)piperidin-1-yl)isoindoline-1,3-dione], the remaining activity at 1 µM was < 50%.
Then `CN(C)c1cccc2cnc(-n3ccc4cc(N5CCC(CCN6CCN(c7ccc8c(c7)C(=O)N(C7CCC(=O)NC7=O)C8=O)CC6)CC5)ncc43)cc12` (stereo not shown) [Compound 512, 5-(4-(2-(1-(1-(5-(dimethylamino)iso-quinolin-3-yl)-1H-pyrrolo[2,3-c]pyridin-5-yl)piperidin-4-yl)ethyl)piperazin-1-yl)-2-(2,6-dioxopiperidin-3-yl)isoindoline-1,3-dione], with < 50%; and `O=C1CCC(N2C(=O)c3ccc(N4CCN(CCC5CCN(c6ncc(-c7ccc8c9cnccc9n(C(F)F)c8c7)cn6)CC5)CC4)cc3C2=O)C(=O)N1` (stereo not shown) [Compound 514, 5-(4-(2-(1-(5-(5-(difluoromethyl)-5H-pyrido[4,3-b]indol-7-yl)pyrimidin-2-yl)piperidin-4-yl)ethyl)piperazin-1-yl)-2-(2,6-dioxopiperidin-3-yl)isoindoline-1,3-dione], with < 50%.
Regarding `Cn1c2ccncc2c2ccc(C3CCN([C@H]4C[C@@H](OC5CCN(CCOc6ccc7c(c6)C(=O)N(C6CCC(=O)NC6=O)C7=O)CC5)C4)CC3)cc21` (stereo partly shown) [Compound 515, 2-(2,6-dioxopiperidin-3-yl)-5-(2-(4-((1s,3s)-3-(4-(5-methyl-5H-pyrido[4,3-b]indol-7-yl)piperidin-1-yl)cyclobutoxy)piperidin-1-yl)ethoxy) isoindoline-1,3-dione], the remaining activity at 1 µM is < 50%.
Turning to `O=C1CCC(N2C(=O)c3ccc(N4CCN(CCC5CCN(CCCn6c7ccccc7c7cnccc76)CC5)CC4)cc3C2=O)C(=O)N1` (stereo not shown) [Compound 527, 5-(4-(2-(1-(3-(5H-pyrido[4,3-b]indol-5-yl)propyl)piperidin-4-yl)ethyl)piperazin-1-yl)-2-(2,6-dioxopiperidin-3-yl)isoindoline-1,3-dione], the remaining activity at 1 µM was < 50%.
Turning to `O=C1CCC(N2C(=O)c3ccc(N4CCN(CCC5CCN(c6ncc(-c7ccc8c9cnccc9n(C(F)F)c8c7)cc6F)CC5)CC4)cc3C2=O)C(=O)N1` (stereo not shown) [Compound 532, 5-[4-[2-[1-[5-[5-(difluoromethyl)pyrido[4,3-b]indol-7-yl]-3-fluoro-2-pyridyl]-4-piperidyl]ethyl]piperazin-1-yl]-2-(2,6-dioxo-3-piperidyl)isoindoline-1,3-dione trifluoroacetate], the remaining activity at 1 µM is < 50%.
Then `Cn1c2ccncc2c2ccc(C#CC3CCN(CCN4CCN(c5ccc6c(c5)C(=O)N(C5CCC(=O)NC5=O)C6=O)CC4)CC3)cc21` (stereo not shown) [Compound 533, 2-(2,6-dioxopiperidin-3-yl)-5-(4-(2-(4-((5-methyl-5H-pyrido[4,3-b]indol-7-yl)ethynyl)piperidin-1-yl)ethyl)piperazin-1-yl)isoindoline-1,3-dione], with < 50%; and `O=C1CCC(N2Cc3cc(N4CCN(CCC5CCN(c6ncc(-c7ccc8c9cnccc9n(C(F)F)c8c7)cc6C(F)(F)F)CC5)CC4)ccc3C2=O)C(=O)N1` (stereo not shown) [Compound 543, 3-(5-(4-(2-(1-(5-(5-(difluoromethyl)-5H-pyrido[4,3-b]indol-7-yl)-3-(trifluoromethyl)pyridin-2-yl)piperidin-4-yl)ethyl)piperazin-1-yl)-1-oxoisoindolin-2-yl)piperidine-2,6-dione], with < 50%; and `Cc1ccc(-n2ccc3cc(N4CCC(CCN5CCN(c6ccc7c(c6)C(=O)N(C6CCC(=O)NC6=O)C7=O)CC5)CC4)ncc32)nc1` (stereo not shown) [Compound 555, 2-(2,6-dioxopiperidin-3-yl)-5-(4-(2-(1-(1-(5-methylpyridin-2-yl)-1H-pyrrolo[2,3-c]pyridin-5-yl)piperidin-4-yl)ethyl)piperazin-1-yl)isoindoline-1,3-dione], with < 50%.
For `Cc1ccc(-c2cn3ccc(N4CCC(CCN5CCN(c6ccc7c(c6)C(=O)N(C6CCC(=O)NC6=O)C7=O)CC5)CC4)cc3n2)cc1` (stereo not shown) [Compound 558, 2-(2,6-dioxopiperidin-3-yl)-5-(4-(2-(1-(2-(p-tolyl)imidazo[1,2-a]pyridin-7-yl)piperidin-4-yl)ethyl)piperazin-1-yl)isoindoline-1,3-dione], the remaining activity at 1 µM is < 50%.
With `Cc1cc2c(cn1)c1ccc(-c3cnc(N4CCC(CCN5CCN(c6ccc7c(c6)C(=O)N(C6CCC(=O)NC6=O)C7=O)CC5)CC4)c(F)c3)cc1n2C` (stereo not shown) [Compound 561, 5-(4-(2-(1-(5-(3,5-dimethyl-5H-pyrido[4,3-b]indol-7-yl)-3-fluoropyridin-2-yl)piperidin-4-yl)ethyl)piperazin-1-yl)-2-(2,6-dioxopiperidin-3-yl)isoindoline-1,3-dione], the remaining activity at 1 µM was < 50%.
Then `O=C1CCC(N2C(=O)c3ccc(N4CCN(CC#CC5CCN(c6ccc7c8cnccc8n(C(F)F)c7c6)CC5)CC4)cc3C2=O)C(=O)N1` (stereo not shown) [Compound 565, formate], with < 50%; and `O=C1CCC(N2C(=O)c3ccc(C#CCN4CCN(CCC5CCN(c6ncc(-c7ccc8c9cnccc9n(C(F)F)c8c7)cc6F)CC5)CC4)cc3C2=O)C(=O)N1` (stereo not shown) [Compound 566, 5-(3-(4-(2-(1-(5-(5-(difluoromethyl)-5H-pyrido[4,3-b]indol-7-yl)-3-fluoropyridin-2-yl)piperidin-4-yl)ethyl)piperazin-1-yl)prop-1-yn-1-yl)-2-(2,6-dioxopiperidin-3-yl)isoindoline-1,3-dione], with < 50%.
`O=C1CCC(N2C(=O)c3ccc(OCCCN4CCC5(CC4)CN(c4ncc(-c6ccc7c8cnccc8n(C(F)F)c7c6)cc4F)C5)cc3C2=O)C(=O)N1` (stereo not shown) [Compound 568, 5-(3-(2-(5-(5-(difluoromethyl)-5H-pyrido[4,3-b]indol-7-yl)-3-fluoropyridin-2-yl)-2,7-diazaspiro[3.5]nonan-7-yl)propoxy)-2-(2,6-dioxopiperidin-3-yl)isoindoline-1,3-dione]: the remaining activity at 1 µM is < 50%.
